Several values for one entry are separate records, joined by “and”; a condition that tells them apart may be missing. Equal entries are not always repeated.
Experiments:
Assay type in all cases: cell-based
320 non-olfactory GPCRs [1] = target: T1, 320 non-olfactory GPCRs (Homo sapiens, UniProt Q15077); conditions: receptor P2RY6; replicate values, Fig_4g
T1 construct: expressed in transfected cells; host or cells: HTLA cells

320 non-olfactory GPCRs [2] = target: T2, 320 non-olfactory GPCRs (Homo sapiens, UniProt Q5T601)
T2 construct: expressed in transfected cells; host or cells: HTLA cells

320 non-olfactory GPCRs [3] = target: T3, 320 non-olfactory GPCRs (Homo sapiens, UniProt P55085)
T3 construct: expressed in transfected cells; host or cells: HTLA cells

320 non-olfactory GPCRs [4] = target: T4, 320 non-olfactory GPCRs (Homo sapiens, UniProt P51684)
T4 construct: expressed in transfected cells; host or cells: HTLA cells
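Wherever Fold of Basal is given: compound tested at 1 µM final concentration.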
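Wherever GPCRome agonism screen response is given: fold over basal response of each receptor without drug.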

T1 sequence (Q15077 whole entry): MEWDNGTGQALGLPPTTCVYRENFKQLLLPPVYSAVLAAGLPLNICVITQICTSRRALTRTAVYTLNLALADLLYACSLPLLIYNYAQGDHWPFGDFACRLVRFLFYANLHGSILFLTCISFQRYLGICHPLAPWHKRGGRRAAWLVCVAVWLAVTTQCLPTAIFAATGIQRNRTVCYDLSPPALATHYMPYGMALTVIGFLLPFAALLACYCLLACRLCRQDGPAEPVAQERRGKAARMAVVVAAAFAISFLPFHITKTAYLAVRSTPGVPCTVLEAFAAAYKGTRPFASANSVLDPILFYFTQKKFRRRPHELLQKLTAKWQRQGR
T3 sequence (P55085 26-397): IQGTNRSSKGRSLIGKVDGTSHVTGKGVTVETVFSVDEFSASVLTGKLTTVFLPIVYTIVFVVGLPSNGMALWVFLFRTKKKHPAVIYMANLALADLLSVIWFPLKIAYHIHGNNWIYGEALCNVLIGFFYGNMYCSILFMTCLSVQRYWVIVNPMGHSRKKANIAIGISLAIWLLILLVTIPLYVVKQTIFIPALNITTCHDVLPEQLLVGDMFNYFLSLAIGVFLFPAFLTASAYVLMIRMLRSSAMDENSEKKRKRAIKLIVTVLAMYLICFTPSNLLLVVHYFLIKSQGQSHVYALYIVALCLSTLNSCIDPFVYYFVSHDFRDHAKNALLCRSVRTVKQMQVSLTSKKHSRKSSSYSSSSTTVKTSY
T4 sequence (P51684 whole entry): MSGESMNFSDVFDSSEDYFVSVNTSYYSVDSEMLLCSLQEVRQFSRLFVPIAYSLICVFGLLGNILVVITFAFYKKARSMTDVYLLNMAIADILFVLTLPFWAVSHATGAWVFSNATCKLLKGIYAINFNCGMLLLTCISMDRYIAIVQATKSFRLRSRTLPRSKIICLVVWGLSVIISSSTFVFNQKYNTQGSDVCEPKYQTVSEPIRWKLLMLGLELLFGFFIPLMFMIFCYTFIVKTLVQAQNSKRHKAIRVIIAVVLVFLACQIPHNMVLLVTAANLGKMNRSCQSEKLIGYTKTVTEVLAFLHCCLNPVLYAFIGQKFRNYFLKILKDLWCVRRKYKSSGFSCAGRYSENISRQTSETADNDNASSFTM
T2 sequence (Q5T601 20-910): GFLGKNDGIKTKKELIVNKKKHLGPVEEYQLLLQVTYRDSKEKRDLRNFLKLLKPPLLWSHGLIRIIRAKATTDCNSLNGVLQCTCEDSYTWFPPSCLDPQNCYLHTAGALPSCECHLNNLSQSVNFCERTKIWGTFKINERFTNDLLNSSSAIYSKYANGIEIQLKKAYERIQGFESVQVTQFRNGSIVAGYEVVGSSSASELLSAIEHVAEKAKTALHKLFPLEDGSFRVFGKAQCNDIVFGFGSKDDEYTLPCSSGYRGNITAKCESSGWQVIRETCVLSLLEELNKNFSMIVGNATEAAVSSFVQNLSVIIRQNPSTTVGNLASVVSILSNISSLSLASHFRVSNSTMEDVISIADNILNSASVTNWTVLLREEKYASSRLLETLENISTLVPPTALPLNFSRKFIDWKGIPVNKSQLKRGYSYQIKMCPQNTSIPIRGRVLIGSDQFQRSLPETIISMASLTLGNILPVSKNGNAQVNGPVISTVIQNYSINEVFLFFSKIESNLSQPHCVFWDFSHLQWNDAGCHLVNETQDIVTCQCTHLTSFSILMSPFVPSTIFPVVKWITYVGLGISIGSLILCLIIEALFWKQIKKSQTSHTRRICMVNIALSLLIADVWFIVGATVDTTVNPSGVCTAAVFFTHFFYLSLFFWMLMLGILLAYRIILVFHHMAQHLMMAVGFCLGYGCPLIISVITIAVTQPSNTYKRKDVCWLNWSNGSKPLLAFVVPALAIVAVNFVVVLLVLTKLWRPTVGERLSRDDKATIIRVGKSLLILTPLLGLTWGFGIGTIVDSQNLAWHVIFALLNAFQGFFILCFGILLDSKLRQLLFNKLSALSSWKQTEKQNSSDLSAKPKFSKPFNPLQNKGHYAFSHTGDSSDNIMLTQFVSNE

CCOc1cccc2cc(C(C)NCC3(O)CCCCC3)oc12 (stereo not shown) [O4LE6]
GPCRome agonism screen response (320 non-olfactory GPCRs [1]): 0.88 and 0.9723 and 0.9546 and 1.27
Fold of Basal (320 non-olfactory GPCRs [2]): 0.7534 and 0.5781 and 0.7634
Fold of Basal (320 non-olfactory GPCRs [3]): 0.6754 and 1.05 and 1.156 and 0.8918
Fold of Basal (320 non-olfactory GPCRs [4]): 0.9905 and 0.8775 and 0.7328 and 0.5067

From PMC7044277 (Nature Communications, 2020)
